The nature of data set [1]: Induction of H2S release in phosphate buffer at 200 uM using 5,5'-dithiobis-(2-nitrobenzoic acid).
Data set [2] can be described thus: Cytotoxicity against human Jurkat T cells assessed as reduction in cell viability at 200 uM after 24 hrs by tryphan blue assay.
For data set [3], the system named is RAW264.7. Particulars: Mus musculus, at 200 µM.
Description: Antiinflammatory activity in mouse RAW264.7 cells assessed as inhibition of LPS-induced NO production at 200 uM preincubated for 1 hr before LPS challenge measured after 24 hrs by Griess method
Data set [4] has as its system RAW264.7. Particulars: Mus musculus, at 200 µM. This is another data set of the same source.
Description: Antiinflammatory activity in mouse RAW264.7 cells assessed as inhibition of LPS-induced PGE2 production at 200 uM preincubated for 1 hr before LPS challenge measured after 24 hrs by ELISA

The structures appear in SMILES notation. Active and inactive are the calls of the source. No cut-off for these calls is given here.

In the case of `COc1ccc(P([O-])(=S)N2CCOCC2)cc1.[K+]` (centres undefined), the results for the Activity entry in data set [1] and in data set [2] were “Not Active” and “Non-toxic”, respectively. Further, the inhibition entry in data set [3] and in data set [4] was “inactive” in each case.

The record behind these values is ChEMBL document CHEMBL3751739, “Investigating the generation of hydrogen sulfide from the phosphonamidodithioate slow-release donor GYY4137” (Medchemcomm, 2015).
